Assays:
[1] = system: Human dermal fibroblasts (HDF); test: In vitro fibrosis assay, TGFβ-stimulated HDF (qRT-PCR); assay type: cell-based; settings: TGFβ 10 ng/mL, 4-32 μM (FIGS. 8C-8F)
Experimental: (§1) Human dermal fibroblasts (HDF, Cell applications, 106-05A) were cultured in Dulbecco's modified Eagle's medium (DMEM, ThermoFisher Scientific, 11995065) supplemented with 10% (v/v) heat-inactivated fetal bovine serum (FBS, ThermoFisher Scientific, 10082147), 1% penicillin/streptomycin and 1 mL polymyxin B and were maintained at 37° C. in humidified atmosphere of 5% CO2 in air. Human atrial cardiac fibroblasts (HCF, Innoprot, P10454) were cultured in fibroblast medium (Innoprot, P60108) supplemented with fetal bovine serum, fibroblast growth supplement and penicillin/streptomycin and were maintained at 37° C. in humidified atmosphere of 5% CO2 in air.
Following 1-9 passages, HDF and HCF were seeded at 0.3×10^6 cells/well in 1 mL cell medium in 12-well plates and incubated overnight at 37° C. in humidified atmosphere of 5% CO2 in air. Next, cells were put on serum starved medium (0.1% FBS) for 8 hours and then stimulated for 24 hours with either PBS, active compound (4-32 μM) or non-active compound (NA1, NA2; 4-32 μM) on top of TGFβ (10 ng/mL, Peprotech, 100-21). […]
RNA was extracted using Nucleospin RNA XS (Machery Nagel) according to the manufacturer's instructions. […] Expression levels were calculated using the comparative cycle method and expressed as fold change to appropriate (background) control. […]

[2] = system: Human atrial cardiac fibroblasts (HCF); test: In vitro fibrosis assay, TGFβ-stimulated HCF (qRT-PCR); assay type: cell-based; settings: TGFβ 10 ng/mL, 24 hours (FIG. 9)
Experimental: as §1
Following 1-9 passages, HDF and HCF were seeded at 0.3×10^6 cells/well in 1 mL cell medium in 12-well plates and incubated overnight at 37° C. in humidified atmosphere of 5% CO2 in air. Next, cells were put on serum starved medium (0.1% FBS) for 8 hours and then stimulated for 24 hours with either PBS, active compound (4-32 μM) or non-active compound (NA1, NA2; 4-32 μM) on top of TGFβ (10 ng/mL, Peprotech, 100-21). […] Next, cells were lysed using 100 μL lysis buffer RA1 (of RNA isolation kit below) supplemented with β-mercapto-ethanol (100:1), scraped with a cell scraper and transferred to centrifuge tubes to be stored at −20° C. for a maximum of 2 weeks before RNA isolation.
RNA was extracted using Nucleospin RNA XS (Machery Nagel) according to the manufacturer's instructions. For cDNA synthesis, total RNA was added to a solution containing buffer with random hexamers and reverse transcriptase enzyme. The PCR was performed using the following parameters: 10 minutes at 25° C., 30 minutes at 48° C., 5 minutes at 95° C. RT-qPCR on the cDNA samples was performed using Taqman Universal PCR Master Mix (Applied Biosystems) and Taqman primers according to the manufacturer's instructions. […] Expression levels were calculated using the comparative cycle method and expressed as fold change to appropriate (background) control. […]

[3] = Metabolic stability, human liver microsomes; assay type: in vitro ADME
Experimental: A mixture of 713 μL milliQ water (Millipore, MA, USA), 200 μL 0.5 M phosphate buffer (pH 7.4, BD Diagnostic Systems, MD, USA), 50 μL NADPH regenerating system solution A (BD Biosciences, CA, USA), 10 μL NADPH regenerating system solution B (BD Biosciences, CA, USA) and 2 μL compound (5 mM in DMSO) was prepared and heated for 5 min at 37° C. Twenty-five μL of liver microsomes (0.5 mg protein/mL, Corning B.V. Life Sciences, Amsterdam, Netherlands) was added to the mixture and 20 μL samples were withdrawn at 0, 0.25, 0.5 and 1, 2, 4, 6 and 24 hours. Eighty μL (4×20 μL) of cold acetonitrile (Sigma-Aldrich, MO, USA) was added to the samples on ice for 10 min. Afterwards, the mixtures were centrifuged at 13,000 rpm for 5 min at 4° C. Seventy-five μL of an acetonitrile/water (10/90) mixture was added to 25 μL supernatant and the obtained samples were analyzed by LC-MS/MS (Waters Acquity H-class UPLC system with ion trap mass spectrometer, Bruker Daltonics Esquire 3000 plus, and Agilent 1100 Series LC system) in triplicate.

C57BL/6N male mice = test: In vivo anti-fibrotic capacity, Angiotensin II left ventricular remodeling mouse model
Experimental: Left ventricular (LV) remodeling was induced in 13-week old C57BL/6N male mice by Angiotensin II (AngII, 1000 ng/kg/min, Sigma Aldrich) using a subcutaneous micro-osmotic pump (model 1004, Alzet). Next to AngII, the mice were also given a second s.c. micro-osmotic pump filled with selected hit compound (83 μg/kg/h) or vehicle. Control groups (sham, compound alone, AngII alone) were also implemented. After 4 weeks of treatment, mice were euthanized and hearts were collected.
Hearts were fixed and embedded in paraffin. The LV interstitial collagen fraction was determined in Masson trichrome blue-stained areas. Cardiomyocyte outlines were stained with antibodies specific for laminin (NB300-144; Novus Biologicals), and cardiomyocyte cross-sectional area was determined by averaging 20 representative cardiomyocytes per section per animal (5 sections/animal). Data was skewed, therefore log transformation was performed. Endothelial cells were stained with isolectin B4 (Vector Laboratories) and capillary density was determined as the number of capillaries per 100 cardiomyocytes by averaging the number of capillaries per cardiomyocytes on 5 images per animal. Capillaries and cardiomyocytes were counted (by an investigator blinded to the treatment protocol) per section per animal (5 sections/animal). Capillaries were normalized to tissue area to calculate capillary density.

C57BL/6N mice = test: In vivo acute toxicity study; settings: accumulative i.p. doses, hematoxylin and eosin staining (FIG. 15)
Experimental: An acute toxicity study was performed on C57BL/6N mice using accumulative doses of compound 1 (n=3) or vehicle (n=3, 10% DMSO). On day 1, mice received 0.4 mg/kg cpd 1, day 2 1.2 mg/kg, day 3 4 mg/kg, day 4 4 mg/kg by intraperitoneal injection. At day 4, 1 hour after injection of 4 mg/kg, the mice were sacrificed and the hearts, liver, and kidney excised. The histology of the organs was evaluated by hematoxylin and eosin staining.

Row | Compound | antifibrotic effect (col1a1 and col3a1 levels) [1] | col3a1 levels in comparison with TGFβ control [2] | t1/2 human ([3]; human liver microsomes) | half-life at 10 µM ([3]; human, liver microsomes, pH 7.4, human liver microsomes, read-out: t1/2 human) | capillary density compared to vehicle (C57BL/6N male mice; 4 weeks (FIG. 14D)) | myocardial fibrosis compared to angiotensin II/vehicle (C57BL/6N male mice; AngII 1000 ng/kg/min + compound 83 μg/kg/h s.c. pump, 4 weeks (FIG. 14A)) | HW:BW ratio (C57BL/6N male mice; add-on to angiotensin II, 4 weeks (FIG. 14B)) | cardiomyocyte cross sectional area compared to angiotensin II/vehicle (C57BL/6N male mice; add-on to angiotensin II, 4 weeks (FIG. 14C)) | col1a1 levels in comparison with TGFβ control [2] | histology of heart, liver and kidney (treated vs control group) (C57BL/6N mice)
1 | CC(Sc1nc2ccccc2c(=O)n1C1CCCC1)c1nc2ccccc2n1C(F)F (centres unmarked) [Compound 7] | significant dose-dependent antifibrotic effects | significantly decreases col3a1 levels | – | – | – | – | – | – | – | –
2 | Cc1sc2nc(SC(C)C(=O)Nc3sccc3C(N)=O)n(CC(C)C)c(=O)c2c1C (centres unmarked) [Compound 6] | significant dose-dependent antifibrotic effects | – | 17 min | 17 to 18 min | – | – | – | – | – | –
3 | O=C(NC1CC1)C(Sc1nc2ccccc2c(=O)n1C1CCCC1)c1ccccc1 (centres unmarked) [Compound 1] | – | – | – | – | significantly increased capillary density | significantly attenuated myocardial fibrosis | no effect | did increase | significantly decrease col1a1 levels | no significant difference in structures of cardiac, liver and renal cells
